Test results: patent US20070219190A1, “Heterocyclic NF-kB Inhibitors” (4SC AG, priority 2006, published 2007)

What follows are compounds tested on A549-NF-κB-SEAP reporter cells (assay: NF-κB inflammation assay (PRINCESS NINA Instant Assay, SEAP reporter)). Conditions: stimulation with 2 ng/ml TNF-α; test concentration for the class not stated.
Format: cell-based
Source text: Inhibition of NF-κB-Induced Inflammation:
For the determination of anti-inflammatory activity of the compounds the PRINCESS® NINA Instant Assay from Cell Culture Service GmbH was used. This assay is based on recombinant A549-NF-κB-SEAP reporter cells preseeded in 96-well flat bottom plates. As the transfected reporter gene for SEAP (secreted embryonic alkaline phosphatase) is under transcriptional control of a NF-κB-responsive element, the expression of this reporter is activated upon stimulation with TNF-α. SEAP secretion into the culture supernatant can be detected by the chemiluminescent substrate CSPD®. Test compounds that inhibit the NF-κB activation show reduced SEAP activity and reduced luminescent readout.
Following 18 h of reactivation at 37° C., 5% CO2 and 90% relative humidity, the cells were incubated with 0.01 up to 100 μM of test compound for 4.5 h before stimulation with 2 ng/ml TNF-α. After stimulation with TNF-α for 22 h endogenous phosphatases were inactivated and CSPD® substrate was supplied for 40 min. SEAP activity then was quantified by measuring luminescence as relative light units (RLU) using a Tecan Ultra reader. Each data point was recorded in quadruplicates and EC50 values were calculated via fitting function and the Microsoft Excel Solver.

SMILES | Biological activity (NF-κB inflammation assay, inhibition)
N#Cc1ccc(CN2CCC(c3nc(C(=O)N4CCC(n5nnc6cc(C(F)(F)F)ccc65)CC4)cs3)CC2)cc1 [Cp. 1, 4-(4-{4-[4-(5-Trifluoromethyl-benzotriazol-1-yl)-piperidine-1-carbonyl]-thiazol-2-yl}-piperidin-1-yl-methyl)-benzonitrile] | ++ (“++” means 80-90%)
N#Cc1ccc(CN2CCC(c3nc(C(=O)N4CCN(c5nsc6ccccc56)CC4)cs3)CC2)cc1 [Cp. 2, 4-{4-[4-(4-Benzo[d]isothiazol-3-yl-piperazine-1-carbonyl)-thiazol-2-yl]-piperidin-1-ylmethyl}-benzonitrile] | ++ (“++” means 80-90%)
N#Cc1ccc(CN2CCC(c3nc(C(=O)N4CCC(n5cnc6ccccc65)CC4)cs3)CC2)cc1 [Cp. 3, 4-{4-[4-(4-Benzoimidazol-1-yl-piperidine-1-carbonyl)-thiazol-2-yl]-piperidin-1-ylmethyl}-benzonitrile] | ++ (“++” means 80-90%)
COc1nc(OC)nc(N2CCC(c3nc(C(=O)N4CCN(c5nsc6ccccc56)CC4)cs3)CC2)n1 [Cp. 5, (4-Benzo[d]isothiazol-3-yl-piperazin-1-yl)-{2-[1-(4,6-dimethoxy-[1,3,5]triazin-2-yl)-piperidin-4-yl]-thiazol-4-yl}-methanone] | ++ (“++” means 80-90%)
COc1nc(OC)nc(N2CCC(c3nc(C(=O)N4CCC(n5cnc6ccccc65)CC4)cs3)CC2)n1 [Cp. 6, (4-Benzoimidazol-1-yl-piperidin-1-yl)-{2-[1-(4,6-dimethoxy-[1,3,5]triazin-2-yl)-piperidin-4-yl]-thiazol-4-yl}-methanone] | ++ (“++” means 80-90%)
COc1cc(N2CCC(c3nc(C(=O)N4CCN(c5nsc6ccccc56)CC4)cs3)CC2)nc(OC)n1 [Cp. 7, (4-Benzo[d]isothiazol-3-yl-piperazin-1-yl)-{2-[1-(2,6-dimethoxy-pyrimidin-4-yl)-piperidin-4-yl]-thiazol-4-yl}-methanone] | ++ (“++” means 80-90%)
O=C(c1csc(C2CCN(c3ncnc4ccsc34)CC2)n1)N1CCN(c2nsc3ccccc23)CC1 [Cp. 8, (4-Benzo[d]isothiazol-3-yl-piperazin-1-yl)-[2-(1-thieno[3,2-d]pyrimidin-4-yl-piperidin-4-yl)-thiazol-4-yl]-methanone] | +++ (“+++” stands for 90-100% inhibition)
